Test system: 388556-164-R-J1-PDC complex spheroid viability
Assay: Anticancer human tumor 388556-164-R-J1-PDC patient-derived colon adenocarcinoma cell line growth inhibition [RAS]
Settings: for IC50: curve of first compound; for viability, T/C: stronger effect = lower value
Procedure, shortened: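 Multi-cell-type spheroids: tumor cells plus HUVEC endothelial cells and mesenchymal stem cells. RAS-pathway inhibitors were combined with targeted agents, each dosed in half-log steps down from clinical Cmax, or from 10 microM when Cmax was unknown.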
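Also: spheroids exposed to compound for 7 days before readout.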
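For viability, T/C in this document: 100% = DMSO vehicle control luminescence.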

For C=CC(=O)Nc1cc(Nc2nccc(-c3cn(C)c4ccccc34)n2)c(OC)cc1N(C)CCN(C)C + C#Cc1c(F)ccc2cc(O)cc(-c3ncc4c(N5CC6CCC(C5)N6)nc(OCC56CCCN5CC(F)C6)nc4c3F)c12, the IC50 (second compound 0.0316 µM) was greater than 1000 nM, the IC50 (second compound 0.1 µM) was greater than 1000 nM and the IC50 (second compound 0.316 µM) was 765 nM. It also gave an IC50 (second compound 1 µM) of 401 nM, an IC50 (second compound 3.16 µM) of 287 nM and an IC50 (second compound 10 µM) of 125 nM. The viability, T/C (second compound 0.0316 µM, first compound 0.00316 µM) was 114%, the viability, T/C (second compound 0.0316 µM, first compound 0.01 µM) was 98.3% and the viability, T/C (second compound 0.0316 µM, first compound 0.0316 µM) was 111%. It also gave a viability, T/C (second compound 0.0316 µM, first compound 0.1 µM) of 92.2%, a viability, T/C (second compound 0.0316 µM, first compound 0.316 µM) of 78.9% and a viability, T/C (second compound 0.0316 µM, first compound 1 µM) of 57.1%. For the same molecule, the viability, T/C (second compound 0.1 µM, first compound 0.00316 µM) was 110%, the viability, T/C (second compound 0.1 µM, first compound 0.01 µM) was 98% and the viability, T/C (second compound 0.1 µM, first compound 0.0316 µM) was 105%. It also gave a viability, T/C (second compound 0.1 µM, first compound 0.1 µM) of 94.5%, a viability, T/C (second compound 0.1 µM, first compound 0.316 µM) of 74.5% and a viability, T/C (second compound 0.1 µM, first compound 1 µM) of 57.8%. For the same molecule, the viability, T/C (second compound 0.316 µM, first compound 0.00316 µM) was 98.4%, the viability, T/C (second compound 0.316 µM, first compound 0.01 µM) was 103% and the viability, T/C (second compound 0.316 µM, first compound 0.0316 µM) was 80.7%. It also gave a viability, T/C (second compound 0.316 µM, first compound 0.1 µM) of 92%, a viability, T/C (second compound 0.316 µM, first compound 0.316 µM) of 72.8% and a viability, T/C (second compound 0.316 µM, first compound 1 µM) of 42.5%. For the same molecule, the viability, T/C (second compound 1 µM, first compound 0.00316 µM) was 91.2%, the viability, T/C (second compound 1 µM, first compound 0.01 µM) was 99.6% and the viability, T/C (second compound 1 µM, first compound 0.0316 µM) was 60.5%. It also gave a viability, T/C (second compound 1 µM, first compound 0.1 µM) of 73.7%, a viability, T/C (second compound 1 µM, first compound 0.316 µM) of 61.1% and a viability, T/C (second compound 1 µM, first compound 1 µM) of 29.8%. For the same molecule, the viability, T/C (second compound 3.16 µM, first compound 0.00316 µM) was 90.2%, the viability, T/C (second compound 3.16 µM, first compound 0.01 µM) was 70.8% and the viability, T/C (second compound 3.16 µM, first compound 0.0316 µM) was 87.3%. It also gave a viability, T/C (second compound 3.16 µM, first compound 0.1 µM) of 69%, a viability, T/C (second compound 3.16 µM, first compound 0.316 µM) of 48.5% and a viability, T/C (second compound 3.16 µM, first compound 1 µM) of 19.8%. For the same molecule, the viability, T/C (second compound 10 µM, first compound 0.00316 µM) was 67.4%, the viability, T/C (second compound 10 µM, first compound 0.01 µM) was 81.5% and the viability, T/C (second compound 10 µM, first compound 0.0316 µM) was 64.1%. The viability, T/C (second compound 10 µM, first compound 0.1 µM) was 56.2%, the viability, T/C (second compound 10 µM, first compound 0.316 µM) was 30.8% and the viability, T/C (second compound 10 µM, first compound 1 µM) was 24.6%.
